According to patent US6656921B1, “Use of zinc hyaluronate against peptic ulcer” (Richter Gedeon Vegyeszeti Gyar RT., priority 1997, dated 2003):
Where “and” joins values, the source holds several entries; their conditions need not be identical. Equal entries are not always repeated. Marks after values point to notes of the source that are not given here.

How the values were obtained:
[1] = tested on: acidified ethanol induced gastric lesion; assay: Inhibition of acidified-ethanol induced gastric lesions; assay type: in vivo, rat; details: for Inhibition / Lesion length/stomach mm ± S.E.M.: 30 min before acidified ethanol
Protocol: Female RG-Wistar rats weighing between 120-150 g were used. Before experiments animals were fasted for 24 hours but received water ad libitum.
Experiments were carried out according to the technique similar to that described by A. Robert [Gastroenterology 77, […] (1979)].
Acidified ethanol (mixture of 50 ml of abs. ethanol and 1 ml of concentrated HCI) was used as strong irritants. Dose of acidified ethanol was 0.5 ml/100 g body weight with intragastric administration. Test compounds were given orally 30 minutes before the acidified ethanol challenge. When the duration of action of test compound was studied test material was administered 60 or 120 minutes earlier to the irritating effect induced by acidified-ethanol effect. One hour after the acidified ethanol treatment rats were sacrificed by cervical dislocation. Stomachs were removed and opened along the greater curvature and mildly washed down. The longitudinal hemorrhagic lesions were assayed by length.
ED50 value was defined as the dose that gave a 50% decrease in ulcer index.

[2] = tested on: indomethacin induced intestinal ulcer; assay: Inhibition of indomethacin induced intestinal ulcer (tensile strength); assay type: in vivo, rat; details: for Effect against indomethacin induced intestinal ulceration (in words): rat, in vivo; for Tensile strength of intestinal wall as index of ulceration Hgmm ± S.E.M.: indomethacin 15 mg/kg p.o.
Protocol: Female, RG-Wistar, non-fasted rats weighing between 120-150 g were used. The intestinal ulcer was induced by oral administration of 15 mg/kg indomethacin. Test compound was given to animals orally 3 times over 48 hours in 24 hour equal intervals. The first introduction of test compound preceded the single indomethacin treatment by 60 minutes. Animals were killed 72 hours after the first administration of the test compound. Control animals received vehicle instead of test compound and normal rats mean non-fasted, non-treated rats. The small intestine segment from pylorus to cecum was removed, placed into 0.9% (w/v) sodium chloride solution at 37° C. and it was connected with a BP recorder through one of its ends via a polyethylene cannula. After ligating both ends of the prepartum the pressure was increased inside the intestine until air bubbles appeared at the weakened site of the intestinal wall. This pressure is expressed in Hgmm and is denoted tensile strength (TS).

[3] = tested on: indomethacin induced gastric lesion; assay: Inhibition of indomethacin induced gastric lesion; assay type: in vivo, rat; details: for ED50 (dose protecting the stomach by 50% from indomethacin): p.o.
Protocol: 2. Inhibition of Indomethacin Induced Gastric Lesion Female RG Wistar rats weighing between 120-150 g were used. Before the experiments animals were fasted for 24 hours but received water ad libitum. Test compounds were given orally, 30 minutes later the animals were treated subcutaneously with indomethacin at a dose of 40 mg/kg. Four hours after the irritating indomethacin administration the animals were killed by cervical dislocation. The stomachs were removed, opened along the greater curvature and the hemorrhagic lesions were counted on the glandular stomach.
ED50 value represents the dose which protects the stomach by 50 % from the damaging effect of indomethacin.

[4] = tested on: acetic acid induced chronic gastric ulcer; assay: Inhibition of acetic acid induced chronic gastric ulcer; assay type: in vivo, rat; details: for Ulcerated area mm^2 ± S.E.M.: day 5 to 14 after surgery
Protocol: Female, RG Wistar rats weighing between 120-150 g were used. Before the surgery animals were deprived of food for 24 hours but received water ad libitum. The chronic gastric ulcer was induced by the injection of 25 μl/animal of 20% (v/v) acetic acid into the gastric wall under light ether anaesthesia according to the method similar to that described by Takagi et al. (1969). The oral treatment with the test compounds was started five days after the surgery and continued in a once-a-day regimen up to the 14th day. The animals were killed on the 15th day and their stomachs were dissected. The severity of ulceration was evaluated by the measurement of the diameter of the ulcers and the area affected was calculated. The healing effect was expressed as differences in percentage between the control and test group values.

Helicobacter pylori = assay: Activity against Helicobacter pylori (agar MIC); assay type: cell-based
Protocol: These experiments were performed on Helicobacter pylori strains cultivated from the gastric biopsy samples of patients suffering from various ulcers. An 1% by (w/w) solutions of De-Nol (colloidal bismuth subcitrate) was used as reference substance. An agar medium supplemented with 10% of bovine blood was employed. Plates containing no substance to be tested were used as controls. The plates inoculated were incubated at 37° C. in a gas atmosphere containing 5% of oxygen and 7-8% of carbon dioxide for 3-5 days. Minimum inhibitory concentration (MIC) value was considered to be the lowest concentration of substances totally inhibiting the growth (propagation) of well-propagating bacteria on control plates.

[5] = tested on: gastrointestinal motility; assay: Gastrointestinal motility in the charcoal propulsion test; assay type: in vivo, rat; details: 100 mg/kg p.o.
Protocol: Experiments were performed on female, RG-Wistar rats weighing 120-140 g, which were fasted for 24 hours but received water ad libitum.
The experimental procedure was carried out according to the technique similar to that described of P. A. Janssen and A. J. Jageneau [J. Pharm. Pharmacel. 9, 381 (1957)].
Test compounds were given orally at a dose of 100 mg/kg. Control animals received physiological saline solution instead of test compounds. 30 minutes later, the 5% (w/v) charcoal suspension was administered orally at a volume of 0.5 ml/animal. 60 minutes after the charcoal treatment the animals were sacrificed by cervical dislocation. The intestine from pylorus to cecum was removed, its lengths measured along with the distance traversed by the charcoal meal.
Motility was expressed as the ratio of length of charcoal suspension to the length of the whole intestine.

[6] = 40 mg/kg p.o., 30 min before indomethacin
[7] = 80 mg/kg p.o., 30 min before indomethacin
[8] = 160 mg/kg p.o., 30 min before indomethacin

Q: How did the Inhibition ([1]; 50 mg/kg p.o.) turn out when sucralfate [reference compound] was run?
A: 0%

Q: What about the “Lesion length/stomach mm ± S.E.M.” value ([1]; 50 mg/kg p.o.) of the same substance?
A: 64.0 ± 25.9 mm

Q: What about the Inhibition ([1]; 100 mg/kg p.o.) of the same substance?
A: 75.3%

Q: What about the “Lesion length/stomach mm ± S.E.M.” value ([1]; 100 mg/kg p.o.) of the same substance?
A: 15.0 ± 5.5 mm

Q: What about the Inhibition ([1]; 400 mg/kg p.o.) of the same substance?
A: 87.7%

Q: What about the “Lesion length/stomach mm ± S.E.M.” value ([1]; 400 mg/kg p.o.) of the same substance?
A: 7.5 ± 3.0 mm

Q: And the “Effect against indomethacin induced intestinal ulceration (in words)” value [2]?
A: totally ineffective

Q: And the Inhibition [3, 6]?
A: 14.8%

Q: And the “Lesion number/stomach ± S.E.M.” value [3, 6]?
A: 14.4 ± 4.8

Q: And the Inhibition [3, 7]?
A: 62.1%

Q: And the “Lesion number/stomach ± S.E.M.” value [3, 7]?
A: 6.4 ± 2.2

Q: What about the Inhibition [3, 8] of the same substance?
A: 82.8%

Q: And the “Lesion number/stomach ± S.E.M.” value [3, 8]?
A: 2.9 ± 1.4

Q: What about the “ED50 (dose protecting the stomach by 50% from indomethacin)” value [3] of the same substance?
A: 74.9 mg/kg

Q: What about the “Ulcerated area mm^2 ± s.e.m.” value ([4]; 100 mg/kg p.o. once a day) of the same substance?
A: 6.7 ± 1.5 mm^2

Q: And the “Ulcerated area mm^2 ± s.e.m.” value ([4]; 500 mg/kg p.o. once a day)?
A: 4.3 ± 1.3* mm^2

Q: What about the “Effect on healing %” value ([4]; 500 mg/kg p.o. once a day, ↓healing slowed down, ↑healing accelerated) of the same substance?
A: 53%

Q: Which “In vitro activity against Helicobacter pylori (in words)” value (Helicobacter pylori) does the source give for zinc hyaluronate here?
A: commensurable with activity of De-Nol

Q: What about the MIC (Helicobacter pylori; strain 822/96, agar medium with 10% bovine blood, 37° C., 3-5 days) of the same substance?
A: 500 mg/L

Q: How did the Inhibition ([1]; 10 mg/kg p.o.) turn out when “zinc hyaluronate [Zinc hyaluronate (II)]” was run?
A: 42.7%

Q: And the “Lesion length/stomach mm ± S.E.M.” value ([1]; 10 mg/kg p.o.)?
A: 48.0 ± 10.9 mm

Q: And the Inhibition ([1]; 25 mg/kg p.o.)?
A: 77.3%

Q: And the “Lesion length/stomach mm ± S.E.M.” value ([1]; 25 mg/kg p.o.)?
A: 19.0 ± 4.4 mm

Q: And the Inhibition ([1]; 50 mg/kg p.o.)?
A: 84.1%

Q: And the “Lesion length/stomach mm ± S.E.M.” value ([1]; 50 mg/kg p.o.)?
A: 13.3 ± 4.8 mm

Q: What about the Inhibition ([1]; 100 mg/kg p.o.) of the same substance?
A: 98.1%

Q: And the “Lesion length/stomach mm ± S.E.M.” value ([1]; 100 mg/kg p.o.)?
A: 1.6 ± 0.5 mm

Q: What about the “ED50 (dose giving 50% decrease in ulcer index)” value ([1]; p.o., 30 min pretreatment) of the same substance?
A: 11.1 mg/kg

Q: And the “Tensile strength of intestinal wall as index of ulceration Hgmm ± S.E.M.” value ([2]; 3 × 1 mg/kg p.o.)?
A: 27.9 ± 8.9 Hgmm

Q: And the “Tensile strength of intestinal wall as index of ulceration Hgmm ± S.E.M.” value ([2]; 3 × 10 mg/kg p.o.)?
A: 41.3 ± 10.9 Hgmm

Q: And the “Tensile strength of intestinal wall as index of ulceration Hgmm ± S.E.M.” value ([2]; 3 × 100 mg/kg p.o.)?
A: 48.8 ± 11.3 Hgmm

Q: And the “Increase of tensile strength of intestinal wall compared to the control group” value ([2]; doses of 10 mg/kg and 100 mg/kg)?
A: almost three times

Q: And the “Effect against indomethacin induced intestinal ulceration (in words)” value [2]?
A: had a protective effect on the intestinal wall

Q: And the Inhibition ([3]; 1.0 mg/kg p.o., 30 min before indomethacin)?
A: 31.8%

Q: What about the “Lesion number/stomach ± S.E.M.” value ([3]; 1.0 mg/kg p.o., 30 min before indomethacin 40 mg/kg s.c.) of the same substance?
A: 8.8 ± 2.1

Q: And the Inhibition ([3]; 10.0 mg/kg p.o., 30 min before indomethacin)?
A: 56.5%

Q: And the “Lesion number/stomach ± S.E.M.” value ([3]; 10.0 mg/kg p.o., 30 min before indomethacin 40 mg/kg s.c.)?
A: 7.4 ± 1.9

Q: What about the Inhibition ([3]; 100 mg/kg p.o., 30 min before indomethacin) of the same substance?
A: 78.2%

Q: What about the “Lesion number/stomach ± S.E.M.” value ([3]; 100 mg/kg p.o., 30 min before indomethacin 40 mg/kg s.c.) of the same substance?
A: 3.7 ± 0.8

Q: What about the “ED50 (dose protecting the stomach by 50% from indomethacin)” value [3] of the same substance?
A: 5.8 mg/kg

Q: And the “Effect on the intestinal motility (in words)” value [5]?
A: absence of change in activity

Q: What about the “Propulsion of charcoal suspension mm ± S.E.M.” value ([5]; 30 min before charcoal, 60 min after charcoal, listed as Zink-hyaluronate (II)) of the same substance?
A: 610 ± 3.9 mm

Q: What about the “Ratio of charcoal suspension to the whole intestinal part” value ([5]; listed as Zink-hyaluronate (II)) of the same substance?
A: 0.77 ± 0.04

Q: What about the “Ulcerated area mm^2 ± S.E.M.” value ([4]; 0.01 mg/kg p.o. once a day) of the same substance?
A: 6.2 ± 1.0 mm^2

Q: What about the “Ulcerated area mm^2 ± S.E.M.” value ([4]; 0.1 mg/kg p.o. once a day) of the same substance?
A: 5.8 ± 1.1 mm^2

Q: And the “Ulcerated area mm^2 ± S.E.M.” value ([4]; 1.0 mg/kg p.o. once a day)?
A: 3.7 ± 1.6* mm^2 and 3.7 ± 0.6* mm^2

Q: And the “Effect on healing of acetic acid induced chronic ulcer (in words)” value ([4]; rat, in vivo)?
A: accelerated the healing
